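Growth conditions: 96-well plates. Treatment: test compound, 48 hours, 5 concentrations. Analysis: linear interpolation between bracketing concentrations; unreached endpoints set to highest concentration. GI50 is the concentration that inhibits growth by half.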 Active and inactive are the calls of the source. Rule as the data show it: active = GI50 up to about 1.1 µM and inactive = higher.
Columns and labels:
Assay in all cases: DTP human tumour cell line panel, 48 h
UO-31 = system: UO-31
NCI-H460 = system: NCI-H460
HL-60 = system: HL-60
M14 = system: M14
HOP-62 = system: HOP-62
OVCAR-8 = system: OVCAR-8
NCI-H226 = system: NCI-H226
SF-295 = system: SF-295
SNB-75 = system: SNB-75
SF-539 = system: SF-539
MCF7 = system: MCF7
BT-549 = system: BT-549
A549 = system: A549
HCT-116 = system: HCT-116
TK-10 = system: TK-10
HCT-15 = system: HCT-15
SR = system: SR
COLO 205 = system: COLO 205
ACHN = system: ACHN
OVCAR-5 = system: OVCAR-5
U-251 = system: U-251
CCRF-CEM = system: CCRF-CEM
NCI-H522 = system: NCI-H522
EKVX = system: EKVX
NCI-H23 = system: NCI-H23
786-0 = system: 786-0
PC-3 = system: PC-3
SF-268 = system: SF-268
SN12C = system: SN12C
SNB-19 = system: SNB-19
CAKI-1 = system: CAKI-1
OVCAR-4 = system: OVCAR-4
HOP-92 = system: HOP-92
SK-OV-3 = system: SK-OV-3
LOX IMVI = system: LOX IMVI
UACC-62 = system: UACC-62
MOLT-4 = system: MOLT-4
OVCAR-3 = system: OVCAR-3
A498 = system: A498
T47D = system: T47D
RXF 393 = system: RXF 393
SK-MEL-5 = system: SK-MEL-5
UACC-257 = system: UACC-257
HCC 2998 = system: HCC 2998
KM12 = system: KM12
MDA-MB-231 = system: MDA-MB-231
NCI/ADR-RES = system: NCI/ADR-RES
MDA-MB-435 = system: MDA-MB-435
SK-MEL-28 = system: SK-MEL-28
SK-MEL-2 = system: SK-MEL-2
DU-145 = system: DU-145
HT-29 = system: HT-29
RPMI-8226 = system: RPMI-8226
SW-620 = system: SW-620
MDA-N = system: MDA-N
Malme-3M = system: Malme-3M
Hs-578T = system: Hs-578T
IGROV-1 = system: IGROV-1
K562 = system: K562

Measured: GI50

CC(C)C(Cl)CCC(C)(Cl)C(=O)CBr (stereo not drawn)
inactive: UO-31 5.98 µM | NCI-H460 16.1 µM | M14 3.43 µM | HOP-62 8.22 µM | OVCAR-8 3.37 µM | NCI-H226 17.8 µM | SF-295 19.3 µM | SNB-75 16.1 µM | SF-539 16.9 µM | MCF7 2.37 µM | BT-549 8.55 µM | A549 20.8 µM | HCT-116 3.03 µM | TK-10 5.83 µM | COLO 205 3.4 µM | ACHN 7.19 µM | OVCAR-5 12.8 µM | U-251 12.7 µM | EKVX 18.2 µM | NCI-H23 5.5 µM | 786-0 3.96 µM | PC-3 8.3 µM | SF-268 20.7 µM | SN12C 14.5 µM | SNB-19 29.6 µM | CAKI-1 6.1 µM | OVCAR-4 4.6 µM | HOP-92 10 µM | SK-OV-3 20 µM | UACC-62 2.77 µM | OVCAR-3 6.18 µM | A498 15 µM | T47D 2.44 µM | RXF 393 2.44 µM | SK-MEL-5 3.24 µM | UACC-257 3.79 µM | HCC 2998 18.5 µM | KM12 14.5 µM | MDA-MB-231 5.37 µM | NCI/ADR-RES 6.81 µM | MDA-MB-435 4.18 µM | SK-MEL-28 5.01 µM | SK-MEL-2 8.32 µM | DU-145 17.8 µM | HT-29 4.36 µM | SW-620 2 µM | MDA-N 1.95 µM | Malme-3M 9.57 µM | Hs-578T 5.73 µM | IGROV-1 6.67 µM
active: HL-60 0.425 µM | SR 0.845 µM | CCRF-CEM 0.331 µM | NCI-H522 1.06 µM | LOX IMVI 0.776 µM | MOLT-4 0.418 µM | RPMI-8226 0.634 µM | K562 1.02 µM
2.99 µM: HCT-15

O=C(OCC1OC(n2nc(Cn3nnc(-c4cccnc4)n3)n(-c3cccc4ccccc34)c2=S)C(OC(=O)c2ccccc2)C1OC(=O)c1ccccc1)c1ccccc1 (stereo not drawn)
> 100 µM: HCT-15
inactive: UO-31 > 100 µM | NCI-H460 > 100 µM | HL-60 > 100 µM | M14 35.3 µM | HOP-62 > 100 µM | OVCAR-8 > 100 µM | NCI-H226 > 100 µM | SF-295 > 100 µM | SNB-75 2.55 µM | SF-539 > 100 µM | MCF7 > 100 µM | BT-549 > 100 µM | A549 > 100 µM | HCT-116 > 100 µM | TK-10 > 100 µM | SR > 100 µM | COLO 205 > 100 µM | ACHN > 100 µM | OVCAR-5 65.9 µM | U-251 > 100 µM | CCRF-CEM > 100 µM | NCI-H522 > 100 µM | EKVX > 100 µM | NCI-H23 > 100 µM | 786-0 > 100 µM | PC-3 > 100 µM | SF-268 > 100 µM | SN12C > 100 µM | SNB-19 > 100 µM | CAKI-1 > 100 µM | OVCAR-4 > 100 µM | HOP-92 > 100 µM | SK-OV-3 > 100 µM | LOX IMVI > 100 µM | UACC-62 > 100 µM | MOLT-4 > 100 µM | OVCAR-3 > 100 µM | A498 > 100 µM | T47D > 100 µM | RXF 393 > 100 µM | SK-MEL-5 > 100 µM | UACC-257 > 100 µM | HCC 2998 > 100 µM | KM12 > 100 µM | MDA-MB-231 53.8 µM | NCI/ADR-RES > 100 µM | MDA-MB-435 > 100 µM | SK-MEL-28 > 100 µM | SK-MEL-2 > 100 µM | DU-145 > 100 µM | HT-29 > 100 µM | RPMI-8226 > 100 µM | SW-620 > 100 µM | MDA-N > 100 µM | Malme-3M > 100 µM | Hs-578T > 100 µM | IGROV-1 > 100 µM | K562 > 100 µM

— ChEMBL document CHEMBL1201862, “PubChem BioAssay data set” (2004)
